Structures can show the parent of a compound that is named as a salt.
Assays:
[1] = Drug uptake into EPC large unilamellar vesicles with proton gradient; type: physicochemical; conditions: 300 mM citric acid pH 4.0 inside, pH 7.5 outside; for encapsulation by the vesicles: EPC LUVs (100 nm filters), 25°C
Method: Egg phosphatidylcholine (15 mg) was dispersed in 2 ml of 300 mM citric acid, pH 4.0 and the resulting MLVs frozen in liquid nitrogen and thawed in warm water (approximately 35°C) a total of five times. The lipid was then extruded 10 times through two stacked 100 nm pore size polycarbonate filters using the LUVET procedure. A proton gradient was created by passage of the vesicles over a Sephadex G-50 (fine) column (1.5 cm x 10 cm) preequilibrated with 300 mM NaCl, 20 mM HEPES, pH 7.5. An aliquot of the large unilamellar vesicles eluted from the column was diluted in 300 mM NaCl, […], pH 7.5 to a lipid concentration of 0.75 mgml^-1 in a total volume of 2 ml and then daunorubicin (113 ug) added from a stock solution (5.64 mgml^-1) in distilled water. The mixture was incubated at room temperature (25°C) and at intervals of 2, 10, 20, 30, 60 and 120 minutes, 100 ul aliquots were centrifuged through 1 ml "minicolumns" of Sephadex G-50 (fine) to remove any unencapsulated daunorubicin from the vesicles. The concentration of entrapped daunorubicin was determined from its absorbance at 500 nm in a Shimadzu UV-265 spectrophotometer following solubilization of the vesicles in 1% Triton X-100. Lipid was quantified by liquid scintillation counting using tracer levels of ^3H-DPPC. In excess of 98% of the daunorubicin was encapsulated by the vesicles giving a drug to lipid molar ratio of 1:5.
(§1) The materials and procedures of Example 30 were employed except that epirubicin (116 ug) was addded to the vesicle suspension (2 ml) from a stock solution (5.8 mgml^-1). Epirubicin uptake was quantified from its absorbance at 500 nm following solubilization of the vesicles in 1% Triton X-100. Epirubicin encapsulation by the vesicles was in excess of 98% giving a drug to lipid molar ratio of 1:5.
as §1, with “mitoxanthrone (103” for “epirubicin (116”, “added” for “addded”, “(2” for “(5.8”, “Mitoxantrone” for “Epirubicin”, “670” for “500”, “2%” for “1%”
The materials and procedures of Example 30 were employed except that cisplatin (200 uM) was combined with the liposome suspension.

[2] = In vitro release of doxorubicin from liposomes under dialysis; type: physicochemical; conditions: vesicles containing 300 mM citrate (pH 4.0), drug to lipid (wt/wt) ratio 1:10 to 1:3, over 24 hours
Method: The materials and-procedures of Example 6 were employed to determine the in vitro stability of the liposome-doxorubicin preparations. Release experiments were performed as follows: 10-fold dilute liposome samples were dialyzed for 24 hours against 1000 volumes of 20 mM HEPES, 150 mM NaCl (pH 7.5) at 37°C. At 1, 2, 4, 8, 10, and 24 hours post-preparation, a 150 ul aliquot was removed and the entrapped doxorubicin was determined.
EPC/cholesterol (55/45 mole ratio) was dried from chloroform to a thin film on a 500 ml capacity round bottom flask (400 mg total lipid). The film was hydrated with 4.0 ml of 300 mM citric acid at pH 4.0, forming MLVs. These MLVs were extruded through 2 stacked 0.22 um Nucleopore membrafil filters followed by extrusion 10 times through a 0.1 um Nucleopore membrafil (tortuous path) filter. To 1.0 ml of the resulting filtrate sample was added 275 ul of 1M Na2CO3, which raised the exterior pH to 8.3. An aliquot (0.6 ml) was heated for 3 minutes at 60°C, as was a 10 mg sample of doxorubicin. The liposome aliquot was added to the 10 mg doxorubicin and heated at 60°C for 5 minutes. The sample was divided into 2 parts. […] At 1 hour, a 150 ul aliquot was removed and analyzed for doxorubicin and lipid phosphate as previously described, after passage down a 1.0 ml Sephadex column equilibrated in the respective buffer. […]

SC-115 cells = experiment: SC-115 tumor growth in Shinogi mice; type: in vivo, Male Shinogi mice; conditions: SC-115 tumor, 3.25, 6.5 and 13 mg/kg i.v., 3 injections at seven day intervals
Method: Male Shinogi mice (25-40g, 9 per group) were injected subcutaneously with 1X10^5 SC-115 cells obtained from a primary tumor in previously inoculated mice. Tumor growth was monitored by palpation and tumor measurements with a vernier caliper. Upon growth of the tumor to 0.5-2.0 g (tumor weight = [width^2 x length]/2, measurements in mm), mice were administered liposomal doxorubicin dose of 13 mg/kg i.v. at seven day intervals (3 injections of the indicated dose). Tumor growth was monitored 3 times weekly for 50 days post first treatment or until the tumor weight exceeded 9 g at which time the animal was sacrificed. Treatment doses were based on the initial animal weights prior to tumor inoculation.
The above procedure was repeated and the mice were administered saline or empty liposomes (administered at a dose equivalent to that given for a liposomal doxorubicin dose of 13 mg/kg).
The above procedure was repeated at 3.25 mg/kg dose and 6.5 mg/kg dose for free and liposomal doxorubicin.

[3] = Doxorubicin entrapment (trapping) efficiency, transmembrane pH gradient loading; type: physicochemical
Method: In order to determine whether an ionizable antineoplastic agent will load into liposomes in response to a transmembrane pH gradient, EPC-containing liposomes are made (about 1.0 mM EPC) with a ^3H-DPPC tracer and with a relatively acidic or basic internal medium such as 300 mM citric acid at about pH 4.0. These liposomes are extruded about 10 times according to the LUVET procedure through 2 100 nm filters, followed by adjustment of the external pH to a relatively basic or acidic pH, for example, sodium carbonate, at about pH 11.0. Following the formation of the pH gradient, the agent to be loaded, spiked with a radioactive isotope of the agent, is admixed with the liposomes to about 200 uM (per 1.0 mM lipid used). The liposomes are separated from free, unentrapped agent on G50-M Sephadex minicolumns at 500 X g for 3 minutes into 13 X 100 mm tubes, and radioactivity counted in a scintillation counter. Uptake of the drug in nmoles per umole of lipid is then plotted over incubation time. One hundred percent of the available doxorubicin is taken up into liposomes under these conditions.
In the case of doxorubicin, commercially available forms, such as powdered, solid, and methylparaben-containing forms (Adriamycin R.D.F., Adria Laboratories, Inc., Columbus, Ohio) may be used in the invention. When the methylparaben-containing form is employed, an aqueous solution such as saline may be added to that form, thereby dissolving it, followed by the admixing of this suspension with the liposomes which have the transmembrane pH gradient across their bilayers. Such admixing at 60°C for about 10 minutes results in more than about 98% encapsulation of the doxorubicin.
To determine entrapment efficiency of the liposome preparations, free and liposome encapsulated doxorubicin was monitored spectrophotometrically employing a Shimadzu UV-160 spectrophotometer as follows: the liposomal-doxorubicin samples were diluted with 20 mM Hepes, 250 mM NaCl (pH 7.5) to achieve approximate doxorubicin concentrations between 0.05-0.10 mM. The following sequence of measurements was made; (1) the absorbance at 600 nm of the diluted sample was adjusted to zero; (2) the sample was alkalinized to pH 10.5 with 1.0 N NaOH (0.02 ml/1.0 ml of sample) and the absorbance at 600 nm was recorded within 2 minutes; (3) the spectrophotometer was zeroed against a 0.2% Triton X-100 solution, and (4) the absorbance at 600 nm of the liposomal-doxorubicin sample to which Triton X-100 had been added (0.02 ml 20% Triton X-100 wt./wt./1.0 ml of sample) was determined. Free:total doxorubicin ratios were calculated as the absorbance at 600 nm upon NaOH addition divided by the absorbance after Triton X-100 addition.
To relate the pH-dependent spectral response technique to actual free and trapped drug levels, vesicle entrapped doxorubicin was determined as follows: A small aliquot of the liposomal-doxorubicin solution was passed down Sephadex G-50 gel columns equilibrated in 20 mM Hepes, 150 mM NaCl (pH 7.5) to separate free from liposome-associated drug. The liposome-containing eluant as well as aliquots of the original solutions were assayed for phospholipid and doxorubicin by phosphorus analysis and optical density at 480 nm, respectively as previously described in Mayer et al., (1986), Biochim Biophys. Acta., 857:123.
The materials and procedures of Example 3 were employed, but entrapment efficiency of liposome encapsulated doxorubicin was monitored by comparison of the color resulting from addition of an aliquot (0.2 ml) of the liposomes to 1.0 N NaOH to a color chart.
After completion of the entrapment procedure according to Example 6, 20 ul of the doxorubicin-liposomes were diluted to 200 ul with 20 mM HEPES, 150 mM NaCl (pH 7.5). An aliquot of this diluted sample (20 ul) was assayed for lipid phosphate by the procedure of Bartlett, J. Biol. Chem. 1959, 234:466-468. […]

ascites L1210 tumor line = experiment: Antitumor activity of vincristine, L1210 lymphocytic leukemia model; type: in vivo, DBA/2J mice; conditions: L1210 model in mice
Method: The antitumor activity of free and liposomal vincristine was assessed employing an L1210 lymphocytic leukemia model. DBA/2J mice (6 mice per group) were injected i.p. with 1 X 10^6 L1210 cells derived from the ascites fluid of a previously infected mouse. Liposomal vincristine made according to Example 27 was administered i.v. at various times after tumor innoculation and animal weights as well as mortality rates were monitored.
The above example was repeated by administering free vincristine and empty liposomes.

[4] = Vincristine trapping efficiency, pH gradient loading; type: physicochemical; conditions: DSPC/cholesterol (55:45) liposomes, 300 mM citric acid pH 4.0, 200 nm filter, drug to lipid approximately 0.17:1, external pH about 7.0, 60°C for 10 minutes
Method: These MLVs (100 mg total lipid/ml buffer) were extruded 10 times through a 200 nm pore size polycarbonate filter in a thermojacket LUVET heated to 60°C. Liposomes were added to a solution of 1 mg/ml vincristine sulfate (Oncovin, available from Eli Lilly and Co., Indianapolis, IN) to achieve a drug to total lipid weight ratio of approximately 0.17:1. To this was added a sufficient amount of 1.0 M Na2HPO4 to bring the pH of the solution to about 7.0. The samples were then heated at 60°C for 10 minutes at which time the drug was encapsulated inside the liposomes at a trapping efficiency in excess of 98%.
The above was repeated using EPC/cholesterol and HSPC/cholesterol.

With `N.N.[Cl][Pt][Cl]` [Cisplatin, cisplatin] the “accumulation into liposomes by the transmembrane pH gradient” value ([1]; EPC LUVs, 200 uM drug) was “not accumulated”.

With `COc1cccc2c1C(=O)c1c(O)c3c(c(O)c1C2=O)C[C@@](O)(C(=O)CO)C[C@@H]3O[C@H]1C[C@H](N)[C@@H](O)[C@H](C)O1` [Epirubicin, epirubicin] the “encapsulation by the vesicles” value [1] was over 98%.

With `O=C1c2c(O)ccc(O)c2C(=O)c2c(NCCNCCO)ccc(NCCNCCO)c21` [Mitoxantrone, mitoxanthrone] the “encapsulation by the vesicles” value [1] was over 98%.

In the case of `COc1cccc2c1C(=O)c1c(O)c3c(c(O)c1C2=O)C[C@@](O)(C(C)=O)C[C@@H]3O[C@H]1C[C@H](N)[C@H](O)[C@H](C)O1` [daunorubicin], the “encapsulation by the vesicles” value [1] is reported as over 98%.

For `COc1cccc2c1C(=O)c1c(O)c3c(c(O)c1C2=O)C[C@@](O)(C(=O)CO)C[C@@H]3O[C@H]1C[C@H](N)[C@H](O)[C@H](C)O1` [doxorubicin], the drug released [2] was “less than 5%”, the tumor growth inhibition (SC-115 cells) was “dose dependent tumor growth inhibition” and the “available doxorubicin taken up into liposomes” value ([3]; EPC liposomes (about 1.0 mM), 300 mM citric acid pH 4.0 inside, 100 nm filters, external sodium carbonate, about 200 uM agent) was “One hundred”. For the same compound, the trapping efficiency ([3]; Example 14: HSPC/cholesterol 2.4:1 weight ratio, 300 mM citric acid pH 4.0, 0.2 um filter, external pH 8.5, 15 minutes at 60°C, color test) was “greater than 95%”, the entrapment efficiency ([3]; Example 21: DSPC liposomes, 300 mM citric acid pH 4.0, 0.2 um filters, external pH 7.8, drug to lipid ratio 0.25:1, 60°C for 5 minutes) was “greater than 95%” and the “drug entrapped by the liposomes” value ([3]; Example 26: EPC/cholesterol (55:45 mol ratio), methods of Example 2) was “Greater than 98%”. The “encapsulation of the doxorubicin” value ([3]; methylparaben-containing form (Adriamycin R.D.F.) dissolved in saline, admixed with pH gradient liposomes at 60°C for about 10 minutes) was “more than 98%”, the entrapment ([3]; vesicles containing 300 mM citrate (pH 4.0), drug to lipid (wt/wt) ratio between 1:10 and 1:3) was “about 100%” and the trapping efficiencies ([3]; vesicles, drug to lipid ratios (wt/wt) 0.1:1 to 0.3:1, neutral, negatively charged or saturated phospholipids, varying cholesterol) was “about 100%”.

With `CC[C@]1(O)C[C@H]2CN(CCc3c([nH]c4ccccc34)[C@@](C(=O)OC)(c3cc4c(cc3OC)N(C=O)[C@H]3[C@@](O)(C(=O)OC)[C@H](OC(C)=O)[C@]5(CC)C=CCN6CC[C@]43[C@@H]65)C2)C1` [vincristine, vincristine sulfate] the “efficacy against the ascites L1210 tumor line” value (ascites L1210 tumor line) was “no efficacy” and the trapping efficiency [4] was over 98%.

From patent EP0719546B1, “LUV comprising saturated phospholipids and method of making the same” (THE LIPOSOME COMPANY, INC., priority 1987, dated 1988)
